# Reference: patent US4764505A, “Skin treatment composition” (Shiseido Company Ltd., priority 1985, dated 1988)
# Like-named read-outs stand apart in the source and are kept apart here.
# Tests used:
# [1] = system: skin; conditions: guinea pig, in vivo
# [2] = Stability with time in 0.1N aqueous sodium hydroxide (absorbancy at 420 nm, FIG. 1); assay type: physicochemical; conditions: 1 mM in 0.1N aqueous sodium hydroxide, 37° C.
# Protocol: Also in FIG. 1, the changes of the absorbancy at 420 nm are shown with the lapse of time.
# Hydroquinone, arbutin, or hydroquinone monocaprylate was dissolved at a concentration of 1 mM in a 0.1N aqueous sodium hydroxide solution. The changes in the color of the resultant solutions with the lapse of time at 37° C. were monitored by measuring the absorbancy at 420 nm.
# [3] = Stability of neutral cream on storage at 37° C. (discoloration); assay type: physicochemical; conditions: for degree of discoloration: neutral cream of Example 8 (or arbutin replaced), 37° C.
# Protocol: These three samples were stored at a temperature of 37° C. for 1 month, 2 months, and 3 months.
# [4] = system: skin; conditions: guinea pig, in vivo; remark: listed apart in the source
# [5] = system: tyrosinase
# Protocol: The depigmenting effects of arbutin and hydroquinone were evaluated by using the inhibition rate of tyrosinase, i.e. polyphenol oxidase for forming melanin. This evaluation method is generally accepted in the art.
# The tyrosinase inhibition rate was determined by using DOPA as a substrate as follows:
# Preparation of Sample Solution
# Aqueous sample solutions having a concentration of hydroquinone or arbutin of 150, 300, or 600 mM were prepared.
# Preparation of Substrate Solution
# A substrate solution was prepared by dissolving 5 mg of DOPA in 10 ml of distilled water.
# Preparation of Enzyme Solution
# An enzyme solution was prepared by dissolving 10 mg of tyrosinase (2000 I.U./mg, Sigma Chemical Co.) in 10 ml of distilled water.
# A 0.5 ml amount of the substrate solution and 0.9 ml of 1/15M phosphate buffer solution were added to 0.05 ml of the sample. The mixture was incubated at 25° C. for 5 minutes. Then, 0.05 ml of the enzyme solution, which was previously incubated at 25° C. for 5 minutes, was added to the above-incubated sample mixture. The resultant mixture was allowed to react for 1.5 minutes. The absorbancy of the resultant reaction mixture was measured at 475 nm. The tyrosinase inhibition rate was calculated from the following equation: [formula] wherein T: Absorbancy in the case of the inhibitor being added;
# T': Absorbancy in the case of the inhibitor being added but the substrate not being added
# C: Absorbancy in the case of the inhibitor not being added
# C': Absorbancy in the case of neither the inhibitor nor the substrate being added
compound,measurement,setting,value
"OC[C@H]1O[C@@H](Oc2ccc(O)cc2)[C@H](O)[C@@H](O)[C@@H]1O [Arbutin, hydroquinone-β-D-glucoside]",irritation (in words),[1],no irritation
same,number of the guinea pigs causing the irritation,[1],0
same,change in color of the solution with lapse of time,[2],the change of appearance was not observed
same,stability with the lapse of time (in words),[3]; Table 4 conclusion,excellent
same,degree of discoloration,[3]; 1 month,++
same,degree of discoloration,[3]; 2 months,++
same,degree of discoloration,[3]; 3 months,++
same,"Results (incidence, animals responding/tested)",[4],0/1
same,"Results (score, erythema and edema criteria)",[4],0
same,contact sensitivity compared with other depigmenting agents,[4],remarkably low compared with that of other depigmenting agents
same,order of the contact sensitization potential,[4],Hydroquinone monocaprylate>Hydroquinone>>Arbutin
same,Inhibition Rate (%),[5]; concentration 5 mM,55.3%
same,Inhibition Rate (%),[5]; concentration 10 mM,62.3%
same,Inhibition Rate (%),[5]; concentration 20 mM,67.1%
same,inhibition effect compared with hydroquinone,"[5]; tyrosinase, Table 1 conclusion in words",superior to that of hydroquinone
"CCCCCCCC(=O)Oc1ccc(O)cc1 [Hydroquinone monocaprylate, hydroquinone monocaprylate]",irritation (in words),[1],strong irritation
same,change in color of the solution with lapse of time,[2],the stability was improved moderate
same,degree of discoloration,[3]; 1 month,+
same,degree of discoloration,[3]; 2 months,+
same,degree of discoloration,[3]; 3 months,-
same,"Results (incidence, animals responding/tested)",[4],5/5
same,"Results (score, erythema and edema criteria)",[4],3.4
same,order of the contact sensitization potential,[4],Hydroquinone monocaprylate>Hydroquinone>>Arbutin
"Oc1ccc(O)cc1 [Hydroquinone, hydroquinone]",change in color of the solution with lapse of time,[2],rapidly colored brown
same,degree of discoloration,[3]; 1 month,-
same,"Results (incidence, animals responding/tested)",[4],5/5
same,"Results (score, erythema and edema criteria)",[4],2.6
same,order of the contact sensitization potential,[4],Hydroquinone monocaprylate>Hydroquinone>>Arbutin
same,Inhibition Rate (%),[5]; concentration 5 mM,46.5%
same,Inhibition Rate (%),[5]; concentration 10 mM,51.6%
same,Inhibition Rate (%),[5]; concentration 20 mM,59.0%
